In ChEMBL document CHEMBL1154895, “Cytotoxic neoclerodane diterpenoids from Scutellaria barbata” (J Nat Prod, 2010):

Test system: SK-BR-3
Test: Cytotoxicity against human SK-BR-3 cells after 48 hrs by MTT assay
Format: functional, cell-based
Conditions: SK-BR-3, 48 h

Q: `CC(=O)O[C@@H](CC1=C(O)C(=O)OC1)[C@]1(C)[C@H]2CCC=C(C)[C@]2(C)[C@@H](OC(=O)c2ccccc2)[C@H](OC(=O)c2ccccc2)[C@]1(C)O` (mixture of isomers) [SCUTEBATA A] was tested. Which IC50 did it give?
A: Its IC50 is 15.2 µM.
